{"source": "paper PMC6332220", "about": "“Synthesis, Characterization and Biological Evaluation of Some Quinoxaline Derivatives: A Promising and Potent New Class of Antitumor and Antimicrobial Agents” (Molecules, 2015)", "test_system": "Gram positive and negative bacteria", "assay": "Disk diffusion, summary over bacterial strains", "format": "cell-based", "details": "range over bacterial strains as summarised in text", "protocol": "The disk diffusion method was used for determination of the antimicrobial activity using ampicillin, gentamicin and amphotericin B as reference drugs. The results were recorded for each compounds as the average diameter as inhibition zones (IZ) of bacterial or fungal growth around the discs in mm as shown in Table 2.\nAntimicrobial activities were carried out against highly pathogenic strains; three strains of Gram positive bacteria (Bacillus subtilis, Staphylococcus aureus and Streptococcus faecalis), four strains of Gram negative bacteria (Escherichia coli, Neisseria gonorrhoeae, Pseudomonas aeruginosa and Salmonella typhimurium) and three fungi strains (Aspergillus flavus, Aspergillus fumigatus and Candida albicans) isolated from primary agar plates. Antimicrobial activity of the tested samples was determined using a modified Kriby-Bauer disk diffusion method. Briefly, 100 µL of the test bacteria/fungi were grown in 10 mL of fresh media until they reached a count approximately 10^8 cells/mL for bacteria or 10^5 cells/mL for fungi. 100 µL of microbial suspension was spread onto agar plates corresponding to the broth in which they were maintained. […]", "data": [{"compound": "NNc1nc2cc(Br)ccc2nc1Cl", "note": "[Compound 3, 6-Bromo-2-chloro-3-hydrazinylquinoxaline]", "values": [{"measurement": "IZ range against Gram positive and negative bacteria", "value": "13–15 mm"}]}]}
